Patent US6908937B2, “Heterocyclic fluoroalkenyl thioethers (II)” (Bayer Cropscience AG, priority 2000, dated 2005)

Assays:
[1] = system: caterpillars of the army worm (Spodoptera frugiperda); assay: Spodoptera frugiperda test; type: in vivo; conditions: 1000 ppm, after 7 days, cabbage leaves dipped
Source text: Spodoptera frugiperda Test

[2] = logP determination by HPLC (EEC Directive 79/831 Annex V.A8); type: physicochemical
Meloidogyne incognita = assay: Meloidogyne test; type: in vivo; conditions: 20 ppm, after 14 days, lettuce
Protocol: Containers are filled with sand, solution of active compound, Meloidogyne incognita egg/larvae suspension and lettuce seeds. The lettuce seeds germinate and the plants develop. On the roots, galls are formed.
After the desired period of time, the nematicidal action is determined in % using gall formation as a measure. 100% means that no galls were found; 0% means that the number of galls on the treated plants corresponds to that of the untreated control.

[3] = system: Boophilus microplus resistant (SP-resistant Parkhurst strain); assay: Test with Boophilus microplus resistant (SP-resistant Parkhurst strain/II), injection; type: in vivo; conditions: injected into the abdomen, after 7 days; for kill (no oviposition of fertile eggs): 20 μg per animal
Protocol: Test with Boophilus microplus Resistant (SP-resistant Parkhurst Strain/II)
20 mg of active compound are dissolved in 1 ml of dimethyl sulphoxide, more dilute concentrations are prepared by dilution in the same solvent.
The test is carried out in 5 replications. 1 μl of the solutions is injected into the abdomen, and the animals are transferred into dishes and kept in a climatized room. After 7 days, the activity is checked by examination for oviposition of fertile eggs. Eggs whose fertility is not visible from the outside are stored in glass tubes in a controlled-environment cabinet until the larvae have hatched. An activity of 100% means that no tick has produced any fertile eggs.

[4] = system: greenhouse red spider mite (Tetranychus urticae); assay: Tetranychus test (OP-resistant/dip treatment); type: in vivo; conditions: 0.1%, after 7 days, bean plants dipped
Source text: Tetranychus Test (OP-resistant/Dip Treatment)

[5] = system: Boophilus microplus resistant (SP-resistant Parkhurst strain); assay: Test with Boophilus microplus resistant (SP-resistant Parkhurst strain/I), dip; type: in vivo; conditions: 100 ppm, adult females dipped for 1 minute
Protocol: Test with Boophilus microplus Resistant (SP-resistant Parkhurst Strain/I)
(§1) 20 mg of active compound are dissolved in 1 ml of dimethyl sulphoxide, more dilute concentrations are prepared by dilution with distilled water.
10 adult Boophilus microplus res. are dipped for 1 minute into the preparation of active compound to be tested. The animals are transferred into plastic beakers and kept in a climatized room, and the kill rate is then determined.

[6] = system: adults of Ctenocephalides felis; assay: Test with cat fleas/oral uptake; type: in vivo; conditions: 100 ppm in citrated cattle blood, after 28 h
Protocol: Test with Cat Fleas/Oral Uptake
15 μl of this formulation are added to 3 ml of citrated cattle blood and stirred.
10 unfed adult fleas (Ctenocephalides felis, strain “Georgi”) are placed into a chamber (Ø 3.2 cm) whose top and bottom are closed with gauze. A metal cylinder whose underside is covered with parafilm is placed onto the chamber. […] Whereas the blood is warmed to 37° C., the temperature in the area of the flea chambers is adjusted to 25° C. Controls are mixed with the same volume of DMSO, without addition of a compound. The determinations are carried out in triplicate.
After 28 h, the mortality in % (=dead fleas) is determined.

[7] = system: larvae of the mustard beetle (Phaedon cochleariae); assay: Phaedon larvae test; conditions: 1000 ppm, after 7 days, cabbage leaves dipped
[8] = system: Trichinella spiralis larvae; assay: Trichinella spiralis in-vitro; parameters: key: 0 means no activity; 1 means weak activity; 2 means good activity; 3 means full activity; conditions: 100 ppm, 5 days at 19° C.
Protocol: Trichinella spiralis In-vitro
Trichinella spiralis larvae are isolated from skeletal muscles and subcutaneous muscles of SPF/CFW1 mice and collected in aqueous 0.9% NaCl containing 20 μg of sisomycin/ml. Per determination, 20 larvae are incubated in 2 ml of a nutrient solution (20 g of Bacto Casitone/l, 10 g of yeast extract/l, 5 g of glucose/l, 0.8 g of KH2PO4/l, 0.8 g of K2HPO4; […] of sisomycin/ml and 1 μg of Canesten/ml; pH=7.2).
The incubation and the determination have been described in Martin et al., Pesticide Science (1996) 48, 343-349. 10 mg of the test compound are dissolved in 0.5 ml of the stated solvent, and such an amount of the resulting solution is added to the incubation medium that the desired concentration is reached. The controls contain only the solvent.
After an incubation time of 5 days at a temperature of 19° C., the experiment is terminated. The anthelmintic activity of a substance is categorized into 4 stages. 0 means no activity, 1 means weak activity, 2 means good activity and 3 means full activity (<50%, 50-75%, >75%, 100% of the larvae dead).

Lucilia cuprina larvae = assay: Blowfly larvae test/development-inhibitory action; type: in vivo; conditions: 100 ppm
Protocol: Blowfly Larvae Test/Development-inhibitory Action
as §1
About 20 Lucilia cuprina larvae are introduced into a test tube which contains about 1 cm^3 of horse meat and 0.5 ml of the preparation of active compound to be tested. After 24 hours and 48 hours, the efficacy of the preparation of active compound is determined. The test tubes are transferred into a beaker whose bottom is covered with sand. After a further 2 days, the test tubes are removed and the pupae are counted.
The efficacy of the preparation of active compound is assessed by the number of flies that have hatched after 1.5 times the period of development of an untreated control. 100% means that no flies have hatched; 0% means that all flies have hatched normally.

[9] = system: peach aphid (Myzus persicae); assay: Myzus test; type: in vivo; conditions: 10 ppm, after 6 days, Vicia faba seedlings dipped
[10] = system: Blatella germanica or Periplaneta americana; assay: Cockroach test; type: in vivo; conditions: 100 ppm, dipped for 1 minute, after 7 days
Protocol: 20 mg of active compound are dissolved in 1 ml of dimethyl sulphoxide, more dilute concentrations are prepared by dilution with distilled H2O.
4 test animals are dipped for 1 minute into the preparation of active compound to be tested.
The test animals are transferred into plastic beakers and kept in a climatized room for 7 days, after which the kill rate is determined.

[11] = pH2, HPLC gradient method, acetonitrile/0.1% aqueous phosphoric acid, Table 1

FC(F)=C(F)CCCCSc1nnc(-c2ccc(C(F)(F)F)cc2)o1 [Example 1, 2-(6,6,5-trifluorohex-5-enylthio)-5-(4-trifluoromethyl-phenyl)-1,3,4-oxadiazole]
kill [1]: 100%
melting point: 40 °C

CSc1nnc(SCCCCC(F)=C(F)F)s1 [Example 5]
logP (pH2) ([2]; pH 2): 3.69
nematicidal action (gall formation) (Meloidogyne incognita): 100%
kill (no oviposition of fertile eggs) [3]: 100%

CC(C)CCSc1nnc(SCCCCC=C(F)F)s1 [Example 12]
logP (pH2) ([2]; pH 2): 5.68
nematicidal action (gall formation) (Meloidogyne incognita): 100%
kill [4]: 98%
kill [5]: 100%
activity (no oviposition of fertile eggs) ([3]; 0.8 μg per animal): 100%
activity (no oviposition of fertile eggs) ([3]; 4 μg per animal): 100%
kill (no oviposition of fertile eggs) [3]: 100%
kill (mortality) [6]: 94%
kill [7]: 100%
anthelmintic activity class (larvae dead) [8]: no activity
kill (no flies hatched) (Lucilia cuprina larvae): 100%

CC(C)CCSc1nnc(SCCCCC(F)=C(F)F)s1 [Example 13]
logP (pH2) [2, 11]: 5.53
nematicidal action (gall formation) (Meloidogyne incognita): 100%

FC(F)=CCCCCSc1nnc(SC(F)F)s1 [Example 30]
logP (pH2) ([2]; pH 2): 3.91

FC(F)=CCCCCSc1nnc(-c2ccc(C(F)(F)F)cc2)o1 [Example 2]
logP (pH2) [2, 11]: 4.77
nematicidal action (gall formation) (Meloidogyne incognita): 100%
kill [4]: 98%
kill (no oviposition of fertile eggs) [3]: 100%
kill [9]: 95%
kill (mortality) [6]: 93%
kill [7]: 100%
anthelmintic activity class (larvae dead) [8]: no activity

FC(F)=C(F)CCCCSc1nnc(SC(F)F)s1 [Example 29]
logP (pH2) ([2]; pH 2): 3.82

FC(F)=C(F)CCCCSC1=NCCCS1 [IB-2]
logP (pH2) ([2]; pH 2): 1.51

FC(F)=C(F)CCCCSc1nnc(SCCCCC(F)=C(F)F)s1 [Example 21]
logP (pH2) ([2]; pH 2): 5.27
activity (no oviposition of fertile eggs) ([3]; 0.8 μg per animal): 100%
activity (no oviposition of fertile eggs) ([3]; 4 μg per animal): 100%
kill (no oviposition of fertile eggs) [3]: 100%
anthelmintic activity class (larvae dead) [8]: no activity

CC(C)Oc1nnc(SCCCCC(F)=C(F)F)s1 [Example 25]
logP (pH2) ([2]; pH 2): 4.24

CSc1nnc(SCCCCC=C(F)F)s1 [Example 6]
kill [10]: 75%
logP (pH2) ([2]; pH 2): 3.79
kill [4]: 98%
kill [5]: 100%
activity (no oviposition of fertile eggs) ([3]; 0.8 μg per animal): 100%
activity (no oviposition of fertile eggs) ([3]; 4 μg per animal): 100%
kill (no oviposition of fertile eggs) [3]: 100%
kill [9]: 95%
kill (mortality) [6]: 81%
kill [7]: 100%

FC(F)=CCCCCSc1nnc(SCCC(F)=C(F)F)s1 [Example 28]
logP (pH2) ([2]; pH 2): 4.84

FC(F)=C(F)CCCCSc1nnc(-c2cc(Cl)nc(Cl)c2)o1 [Example 16]
logP (pH2) ([2]; pH 2): 4.55

FC(F)=CCCCCSc1nnc(C(F)(F)F)s1 [Example 10]
kill [10]: 100%
logP (pH2) [2, 11]: 4.32
kill [5]: 100%
kill [1]: 100%
activity (no oviposition of fertile eggs) ([3]; 0.8 μg per animal): 100%
activity (no oviposition of fertile eggs) ([3]; 4 μg per animal): 100%
kill (no oviposition of fertile eggs) [3]: 100%
kill [9]: 100%
kill (mortality) [6]: 87%
anthelmintic activity class (larvae dead) [8]: no activity

C[S+]([O-])c1nnc(SCCCCC(F)=C(F)F)s1 (stereo not drawn) [Example 9]
logP (pH2) ([2]; pH 2): 2.46

CCOc1nnc(SCCCCC(F)=C(F)F)s1 [Example 24]
logP (pH2) ([2]; pH 2): 3.80

FC(F)=C(F)CCCCSc1nnc(SCCC(F)=C(F)F)s1 [Example 27]
logP (pH2) ([2]; pH 2): 4.71

FC(F)=CCCCCSC1=NCCCS1 [IB-1]
logP (pH2) ([2]; pH 2): 1.48

FC(F)=C(F)CCCCSc1nnc(C(F)(F)F)s1 [Example 11]
logP (pH2) [2, 11]: 4.21
kill [7]: 100%
